Test results from PMC8037097, “Highly Oxygenated Triterpenoids and Diterpenoids from Fructus Rubi (Rubus chingii Hu) and Their NF-kappa B Inhibitory Effects” (Molecules, 2021).
Values after ≈ are worked out from the molar mass of the structure shown. Like-named read-outs stand apart in the source and are kept apart here.

What was measured:
NF-κB = NF-κB inhibitory assay (luciferase, HEK293 with stable NF-κB expression, TNF-α stimulation); type: cell-based; conditions: read-out: NF-κB (IC50)
Procedure: HEK293 with a stable NF-κB expression cell line was used for the luciferase assay. Cells were maintained at 37 °C and 5% CO2 atmosphere in Dulbecco’s modified Eagle’s medium with 100 U/mL benzylpenicillin 100 μg/mL streptomycin, 2 mM glutamine, and 10% fetal bovine serum. Before seeding in 96-well plates, the cells were stained for 1 h in serum-free medium supplemented with […] cell Tracker Green CMFDA. Cells were seeded into 96-well plates and incubated for 24 h, and then treated with different concentrations of the tested compounds followed by stimulation with 20 ng/mL TNF-α. The luciferase substrate was added to each well after incubation for 6 h, and then the released luciferin signal was detected using an EnVision microplate reader. The IC50 value was derived from a nonlinear regression model (curve-fit), based on a sigmoidal dose response curve (variable slope) and computed using Graphpad Prism 5 (Graphpad Software). Bortezomib (PS-341, CAS No. 179324-69-7) was used as the positive control.

[1] = system: C. albicans SC5314 sensitive strain; test: Anti-fungal susceptibility assay (CLSI M27-A3), sensitive strain; type: cell-based; conditions: Candida albicans, 48 h incubation at 37 °C
Procedure: An anti-fungal assay was carried out on the basis of the Clinical and Laboratory Standards Institute (CLSI) method M27-A3 [45, 48]. A single colony of Candida albicans (the resistant strain 901 or the sensitive strain 5314) was chosen from Sabouraud’s agar and then inoculated in yeast extract peptone dextrose medium (YEPD) for activation by shake bottled cultivation (200 rpm, 37 °C). After 16 h, fungi in the late-exponential growth phase were obtained, followed by being adjusted to 1 × 10^3–5 × 10^3 CFU/mL with RPMI 1640 medium. The density of the fungi in 96-well plates was 10^3 CFU/mL, while the final concentrations of the test compounds ranged from 64 to 0.125 μg/mL in triplicate. The assay volume in each well was 100 μL with MIC80 determined following 48 h incubation at 37 °C. Optical density was measured with a microplate reader (Multiskan MK3; Labsystems, Nantaa, Finland) at 630 nm. MIC80 was determined as the lowest concentration of the drugs that inhibited growth by 80% compared with the […]. Fluconazole was used as the positive control.

In the case of cucurbitacin B [Compound 15], the IC50 (NF-κB; HEK293 NF-κB luciferase, 20 ng/mL TNF-α, 6 h, mean SEM of triplicated experiments) is reported as 80 ± 30 nM.
In the case of `CC(C)(O)/C=C/C(=O)[C@](C)(O)[C@H]1[C@H](O)C[C@@]2(C)[C@@H]3CC=C4[C@@H](CC(=O)[C@@H](O)C4(C)C)[C@]3(C)C(=O)C[C@]12C` [Compound 17, 3α,16α,20(R),25-tetrahydroxy-cucurbita-5,23-dien-2,11,22-trione], the IC50 (NF-κB; Homo sapiens, HEK293, 6 h) is reported as 1600 ± 320 nM.
In the case of `CC(C)(O)/C=C/C(=O)[C@](C)(O)[C@H]1[C@H](O)C[C@@]2(C)[C@@H]3CC=C4[C@@H](C[C@H](O)C(=O)C4(C)C)[C@]3(C)C(=O)C[C@]12C` [Compound 16, cucurbitacin D], the IC50 (NF-κB; Homo sapiens, HEK293, 6 h) is reported as 610 ± 120 nM.
`CC1(C)CC[C@]2(C(=O)O)CC[C@]3(C)C(=CC[C@@H]4[C@@]5(C)C[C@@H](O)[C@@H](O)[C@@](C)(CO)[C@@H]5CC[C@]43C)[C@@H]2C1` [Compound 12] gave an MIC80 [1] of 32 µg/mL (≈ 65.5 µM).
`OC(Cn1cncn1)(Cn1cncn1)c1ccc(F)cc1F` [Fluconazole, reference compound] gave an MIC80 [1] of 0.125 µg/mL (≈ 0.408 µM).
For `CC(C)C[C@H](NC(=O)[C@H](Cc1ccccc1)NC(=O)c1cnccn1)B(O)O` [PS-341, Bortezomib, reference compound], the IC50 (NF-κB; Homo sapiens, HEK293 NF-κB luciferase, 20 ng/mL TNF-α, 6 h, mean SEM of triplicated experiments) was 440 ± 80 nM.
